According to patent US20230024096A1, “BIFUNCTIONAL COMPOUNDS FOR THE TREATMENT OF CANCER” (Hoffmann-La Roche Inc., priority 2019, published 2023):

Target: T1, SMARCA2 (Homo sapiens, UniProt P51531)
T1 construct: endogenous in cells; host or cells: HT1080 (CRISPR HiBiT knock-in clone, generated in house)
Assay: SMARCA2 HiBiT degradation assay (cellular)
Type: cell-based
Details: table head names A549; for DC50: 6 h incubation, HiBiT-tagged SMARCA2, luminescence read-out, read-out: HiBit A549 SMARCA2 IP (nM) 6 h; for Emax: A549, 6 h incubation, Emax = amount of residual protein remaining in the cell following compound treatment

T1 sequence (P51531 whole entry): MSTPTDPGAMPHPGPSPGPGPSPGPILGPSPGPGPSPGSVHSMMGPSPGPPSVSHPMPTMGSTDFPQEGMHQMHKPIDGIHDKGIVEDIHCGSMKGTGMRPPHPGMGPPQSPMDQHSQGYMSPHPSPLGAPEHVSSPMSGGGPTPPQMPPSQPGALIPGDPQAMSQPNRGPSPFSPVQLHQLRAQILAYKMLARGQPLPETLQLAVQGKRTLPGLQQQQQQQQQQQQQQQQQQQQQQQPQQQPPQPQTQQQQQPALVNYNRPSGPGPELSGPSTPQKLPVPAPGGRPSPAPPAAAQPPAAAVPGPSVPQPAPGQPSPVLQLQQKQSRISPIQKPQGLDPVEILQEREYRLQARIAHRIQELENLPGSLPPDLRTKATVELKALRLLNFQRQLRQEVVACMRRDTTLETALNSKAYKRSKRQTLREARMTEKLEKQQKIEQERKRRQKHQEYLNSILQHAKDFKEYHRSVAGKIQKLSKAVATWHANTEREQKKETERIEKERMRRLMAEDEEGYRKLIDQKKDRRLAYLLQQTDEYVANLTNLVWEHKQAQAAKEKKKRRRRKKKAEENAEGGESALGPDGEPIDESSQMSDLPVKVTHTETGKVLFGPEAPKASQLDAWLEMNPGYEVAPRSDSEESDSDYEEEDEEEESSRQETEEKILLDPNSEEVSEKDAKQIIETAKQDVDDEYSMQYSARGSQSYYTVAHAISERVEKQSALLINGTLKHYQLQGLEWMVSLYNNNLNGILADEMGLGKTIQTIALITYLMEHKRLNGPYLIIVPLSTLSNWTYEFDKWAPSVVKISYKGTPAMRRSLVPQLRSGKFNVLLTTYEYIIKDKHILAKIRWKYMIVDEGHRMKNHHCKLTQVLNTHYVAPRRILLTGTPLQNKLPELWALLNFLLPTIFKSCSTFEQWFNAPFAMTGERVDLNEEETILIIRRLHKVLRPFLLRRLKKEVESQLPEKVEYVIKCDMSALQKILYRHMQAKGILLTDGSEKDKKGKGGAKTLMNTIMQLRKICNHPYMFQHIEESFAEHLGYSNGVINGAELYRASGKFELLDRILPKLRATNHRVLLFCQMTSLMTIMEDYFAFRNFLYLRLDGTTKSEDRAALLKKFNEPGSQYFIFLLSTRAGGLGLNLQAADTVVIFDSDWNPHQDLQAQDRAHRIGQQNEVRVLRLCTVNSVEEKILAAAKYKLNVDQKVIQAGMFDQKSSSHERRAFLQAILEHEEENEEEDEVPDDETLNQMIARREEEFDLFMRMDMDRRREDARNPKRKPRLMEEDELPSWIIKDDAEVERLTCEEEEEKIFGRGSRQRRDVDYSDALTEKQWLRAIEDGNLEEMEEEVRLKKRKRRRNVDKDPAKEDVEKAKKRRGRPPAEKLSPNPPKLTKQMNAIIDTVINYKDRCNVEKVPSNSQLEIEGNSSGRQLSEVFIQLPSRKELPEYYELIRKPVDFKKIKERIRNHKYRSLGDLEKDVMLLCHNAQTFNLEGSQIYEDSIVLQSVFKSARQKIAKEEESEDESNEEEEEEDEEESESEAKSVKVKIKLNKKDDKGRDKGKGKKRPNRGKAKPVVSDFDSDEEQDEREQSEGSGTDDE

**Q.** How did the DC50 turn out when Nc1nnc(-c2ccccc2O)cc1N1CCC(NC(=O)CCN2CCC(c3ccc(OC4CCC(=O)NC4=O)cc3)CC2)(c2ccccc2)CC1 (stereo not shown) [Example 115, N-(1-(3-amino-6-(2-hydroxyphenyl)pyridazin-4-yl)-4-phenylpiperidin-4-yl)-3-(4-(4-((2,6-dioxopiperidin-3-yl)oxy)phenyl)piperidin-1-yl)propanamide diformate] was run?
**A.** The DC50 was 810 nM.

**Q.** And the Emax?
**A.** The Emax was 63%.

**Q.** For Nc1nnc(-c2ccccc2O)cc1N1CCC(C(=O)NCC2CCN(C(=O)CCCN3CCC(c4ccc(OC5CCC(=O)NC5=O)cc4)CC3)CC2)(c2ccccc2)CC1 (stereo not shown) [Example 104, 1-(3-amino-6-(2-hydroxyphenyl)pyridazin-4-yl)-N-((1-(4-(4-(4-((2,6-dioxopiperidin-3-yl)oxy)phenyl)piperidin-1-yl)butanoyl)piperidin-4-yl)methyl)-4-phenylpiperidine-4-carboxamide], which DC50 is on record?
**A.** Its DC50 is 103 nM.

**Q.** What about the Emax of the same compound?
**A.** The Emax was 33%.

**Q.** For Nc1nnc(-c2ccccc2O)cc1N1CC2CCC(C1)N2c1cccc(OCCN2CCN(C(=O)CCCNC(=O)COc3cccc4c3C(=O)N(C3CCC(=O)NC3=O)C4=O)CC2)c1 (racemic) [Example 17, rac-N-[4-[4-[2-[3-[3-[3-amino-6-(2-hydroxyphenyl)pyridazin-4-yl]-3,8-diazabicyclo[3.2.1]octan-8-yl]phenoxy]ethyl]piperazin-1-yl]-4-oxo-butyl]-2-[2-(2,6-dioxo-3-piperidyl)-1,3-dioxo-isoindolin-4-yl]oxy-acetamide], which DC50 is on record?
**A.** The DC50 was 1440 nM.

**Q.** What about the Emax of the same compound?
**A.** Its Emax is 64%.

**Q.** What does the source list for Nc1nnc(-c2ccccc2O)cc1N1CCC(C(=O)N2CC3(CCN(CC4CCN(c5ccc6c(c5)C(=O)N(C5CCC(=O)NC5=O)C6=O)CC4)C3)C2)(c2ccccc2)CC1 (stereo not shown) [Example 190, 5-(4-((2-(1-(3-amino-6-(2-hydroxyphenyl)pyridazin-4-yl)-4-phenylpiperidine-4-carbonyl)-2,6-diazaspiro[3.4]octan-6-yl)methyl)piperidin-1-yl)-2-(2,6-dioxopiperidin-3-yl)isoindoline-1,3-dione]?
**A.** DC50: 22 nM; Emax: 29%

**Q.** With Nc1nnc(-c2ccccc2O)cc1N1CC2CCC(C1)N2c1cccc(OCCN2CCN(C(=O)N3CC4(C3)CN(c3ccc5c(c3)C(=O)N(C3CCC(=O)NC3=O)C5=O)C4)CC2)c1 (racemic) [Example 69, rac-5-[2-[4-[2-[3-[3-[3-amino-6-(2-hydroxyphenyl)pyridazin-4-yl]-3,8-diazabicyclo[3.2.1]octan-8-yl]phenoxy]ethyl]piperazine-1-carbonyl]-2,6-diazaspiro[3.3]heptan-6-yl]-2-(2,6-dioxo-3-piperidyl)isoindoline-1,3-dione] as the compound, how does the DC50 read?
**A.** The DC50 was 16 nM.

**Q.** And the Emax?
**A.** The Emax was 48%.

**Q.** With Nc1nnc(-c2ccccc2O)cc1N1CC2CCC(C1)N2c1cccc(CN2CCC(C(=O)N3CCC(c4ccc(NC5CCC(=O)NC5=O)cc4)CC3)CC2)c1 (racemic) [Example 93, rac-3-[4-[1-[1-[[3-[3-[3-amino-6-(2-hydroxyphenyl)pyridazin-4-yl]-3,8-diazabicyclo[3.2.1]octan-8-yl]phenyl]methyl]piperidine-4-carbonyl]-4-piperidyl]anilino]piperidine-2,6-dione] as the compound, how does the DC50 read?
**A.** The DC50 was 9 nM.

**Q.** What about the Emax of the same compound?
**A.** Its Emax is 52%.

**Q.** With Nc1nnc(-c2ccccc2O)cc1N1CCN(c2cccc(CN3CCN(C(=O)C4CCN(c5ccc6c(c5)C(=O)N(C5CCC(=O)NC5=O)C6=O)CC4)CC3)c2)C2(CC2)C1 (stereo not shown) [Example 127, 5-(4-(4-(3-(7-(3-amino-6-(2-hydroxyphenyl)pyridazin-4-yl)-4,7-diazaspiro[2.5]octan-4-yl)benzyl)piperazine-1-carbonyl)piperidin-1-yl)-2-(2,6-dioxopiperidin-3-yl)isoindoline-1,3-dione] as the compound, how does the Emax read?
**A.** Its Emax is 26%.

**Q.** How did the DC50 turn out when Nc1nnc(-c2ccccc2O)cc1N1CC(Oc2cccc(CN3CCN(C(=O)C4CCN(c5ccc6c(c5)C(=O)N(C5CCC(=O)NC5=O)C6=O)CC4)CC3)c2)C1 (racemic) [Example 155, rac-5-[4-[4-[[3-[1-[3-amino-6-(2-hydroxyphenyl)pyridazin-4-yl]azetidin-3-yl]oxyphenyl]methyl]piperazine-1-carbonyl]-1-piperidyl]-2-(2,6-dioxo-3-piperidyl)isoindoline-1,3-dione] was run?
**A.** Its DC50 is 5 nM.

**Q.** What about the Emax of the same compound?
**A.** The Emax was 26%.

**Q.** Which results are given for Nc1nnc(-c2ccccc2O)cc1N1CCC(C(=O)NCC2CCN(C(=O)CN3CCC(c4ccc(NC5CCC(=O)NC5=O)cc4)CC3)CC2)(c2ccccc2)CC1 (stereo not shown) [Example 102, 1-[3-amino-6-(2-hydroxyphenyl)pyridazin-4-yl]-N-[[1-[2-[4-[4-[(2,6-dioxopiperidin-3-yl)amino]phenyl]piperidin-1-yl]acetyl]piperidin-4-yl]methyl]-4-phenylpiperidine-4-carboxamide]?
**A.** DC50: 102 nM; Emax: 38%

**Q.** How did the DC50 turn out when CC(Nc1cccc2c1C(=O)N(C1CCC(=O)NC1=O)C2=O)c1cn(CCCCCCCCCN2CCN(c3ccc(N4CCC[C@H](Oc5cc(-c6ccccc6O)nnc5N)C4)cc3)CC2)nn1 (mixture of isomers) [Example 201, 2-(2,6-dioxo-3-piperidyl)-4-[1-[1-[9-[4-[4-[rac-(3S)-3-[3-amino-6-(2-hydroxyphenyl)pyridazin-4-yl]oxy-1-piperidyl]phenyl]piperazin-1-yl]nonyl]triazol-4-yl]ethylamino]isoindoline-1,3-dione] was run?
**A.** Its DC50 is 79 nM.

**Q.** And the Emax?
**A.** The Emax was 37%.

**Q.** How did the DC50 turn out when CC(Oc1cccc2c1C(=O)N(C1CCC(=O)NC1=O)C2=O)c1cn(CCCN2CCN(C(=O)CCN3CCN(c4ccc(N5CCC[C@H](Oc6cc(-c7ccccc7O)nnc6N)C5)cc4)CC3)CC2)nn1 (mixture of isomers) [Example 200, 2-(2,6-dioxo-3-piperidyl)-4-[1-[1-[3-[4-[3-[4-[4-[rac-(3S)-3-[3-amino-6-(2-hydroxyphenyl)pyridazin-4-yl]oxy-1-piperidyl]phenyl]piperazin-1-yl]propanoyl]piperazin-1-yl]propyl]triazol-4-yl]ethoxy]isoindoline-1,3-dione] was run?
**A.** Its DC50 is 104 nM.

**Q.** What about the Emax of the same compound?
**A.** Its Emax is 45%.

**Q.** For Nc1nnc(-c2ccccc2O)cc1N1CCC(C(=O)N2CC3(CCN(C(=O)CCC4CCN(c5ccc6c(c5)C(=O)N(C5CCC(=O)NC5=O)C6=O)CC4)C3)C2)(c2ccccc2)CC1 (stereo not shown) [Example 188, 5-(4-(3-(2-(1-(3-amino-6-(2-hydroxyphenyl)pyridazin-4-yl)-4-phenylpiperidine-4-carbonyl)-2,6-diazaspiro[3.4]octan-6-yl)-3-oxopropyl)piperidin-1-yl)-2-(2,6-dioxopiperidin-3-yl)isoindoline-1,3-dione], which DC50 is on record?
**A.** The DC50 was 193 nM.

**Q.** What about the Emax of the same compound?
**A.** Its Emax is 50%.

**Q.** Which DC50 does the source give for Nc1nnc(-c2ccccc2O)cc1N1CC2CCC(C1)N2c1cccc(OCCN2CCN(C(=O)CCC(=O)N3CCN(Cc4cccc5c4C(=O)N(C4CCC(=O)NC4=O)C5=O)CC3)CC2)c1 (racemic) [Example 22, rac-4-[[4-[4-[4-[2-[3-[3-[3-amino-6-(2-hydroxyphenyl)pyridazin-4-yl]-3,8-diazabicyclo[3.2.1]octan-8-yl]phenoxy]ethyl]piperazin-1-yl]-4-oxo-butanoyl]piperazin-1-yl]methyl]-2-(2,6-dioxo-3-piperidyl)isoindoline-1,3-dione] here?
**A.** The DC50 was 212 nM.

**Q.** And the Emax?
**A.** The Emax was 28%.

**Q.** Which DC50 does the source give for Nc1nnc(-c2ccccc2O)cc1N1CC2CCC(C1)N2c1cccc(OCCN2CCN(C(=O)CCCCCCCNc3cccc4c3C(=O)N(C3CCC(=O)NC3=O)C4=O)CC2)c1 (racemic) [Example 11, rac-4-[[8-[4-[2-[3-[3-[3-amino-6-(2-hydroxyphenyl)pyridazin-4-yl]-3,8-diazabicyclo[3.2.1]octan-8-yl]phenoxy]ethyl]piperazin-1-yl]-8-oxo-octyl]amino]-2-(2,6-dioxo-3-piperidyl)isoindoline-1,3-dione] here?
**A.** The DC50 was 146 nM.

**Q.** And the Emax?
**A.** The Emax was 64%.

**Q.** Which results are given for Nc1nnc(-c2ccccc2O)cc1N1CC2CCC(C1)N2c1cccc(CN2CCN(C(=O)CN3CCC(c4ccc(OC5CCC(=O)NC5=O)cc4)CC3)CC2)c1 (racemic) [Example 148, rac-3-[4-[1-[2-[4-[[3-[3-[3-Amino-6-(2-hydroxyphenyl)pyridazin-4-yl]-3,8-diazabicyclo[3.2.1]octan-8-yl]phenyl]methyl]piperazin-1-yl]-2-oxo-ethyl]-4-piperidyl]phenoxy]piperidine-2,6-dione]?
**A.** DC50: 25 nM; Emax: 33%

**Q.** For Nc1nnc(-c2ccccc2O)cc1N1CC(Oc2cccc(N3CCN(C(=O)CCC4CCN(c5ccc6c(c5)C(=O)N(C5CCC(=O)NC5=O)C6=O)CC4)CC3)c2)C1 (racemic) [Example 153, rac-5-[4-[3-[4-[3-[1-[3-amino-6-(2-hydroxyphenyl)pyridazin-4-yl]azetidin-3-yl]oxyphenyl]piperazin-1-yl]-3-oxo-propyl]-1-piperidyl]-2-(2,6-dioxo-3-piperidyl)isoindoline-1,3-dione], which DC50 is on record?
**A.** The DC50 was 19 nM.

**Q.** And the Emax?
**A.** The Emax was 21%.

**Q.** What does the source list for Nc1nnc(-c2ccccc2O)cc1N1CCC(C(=O)N2CCC(C(=O)N3CCN(c4ccc5c(c4)C(=O)N(C4CCC(=O)NC4=O)C5=O)CC3)CC2)(c2ccccc2)CC1 (stereo not shown) [Example 178, 5-(4-(1-(1-(3-amino-6-(2-hydroxyphenyl)pyridazin-4-yl)-4-phenylpiperidine-4-carbonyl)piperidine-4-carbonyl)piperazin-1-yl)-2-(2,6-dioxopiperidin-3-yl)isoindoline-1,3-dione]?
**A.** DC50: 187 nM; Emax: 46%

**Q.** For Nc1nnc(-c2ccccc2O)cc1N1CC2CCC(C1)N2c1cccc(CN2CCN(C(=O)CCC3CCN(c4ccc5c(c4)C(=O)N(C4CCC(=O)NC4=O)C5=O)CC3)CC2)c1 (racemic) [Example 47, rac-5-[4-[3-[4-[[3-[3-[3-Amino-6-(2-hydroxyphenyl)pyridazin-4-yl]-3,8-diazabicyclo[3.2.1]octan-8-yl]phenyl]methyl]piperazin-1-yl]-3-oxo-propyl]-1-piperidyl]-2-(2,6-dioxo-3-piperidyl)isoindoline-1,3-dione], which DC50 is on record?
**A.** The DC50 was 17 nM.

**Q.** What about the Emax of the same compound?
**A.** Its Emax is 42%.

**Q.** What does the source list for Nc1nnc(-c2ccccc2O)cc1N1CCN(c2ccccc2)C(C(=O)NCC2CCN(C(=O)C3CCN(c4ccc5c(c4)C(=O)N(C4CCC(=O)NC4=O)C5=O)CC3)CC2)C1 (stereo not shown) [Example 82, 4-(3-amino-6-(2-hydroxyphenyl)pyridazin-4-yl)-N-((1-(1-(2-(2,6-dioxopiperidin-3-yl)-1,3-dioxoisoindolin-5-yl)piperidine-4-carbonyl)piperidin-4-yl)methyl)-1-phenylpiperazine-2-carboxamide]?
**A.** DC50: 190 nM; Emax: 65%
